What was measured:
Assay in all cases: relative viability (nuclei count vs DMSO), 5 days (fraction); higher = more cells survive
Ruxolitinib + Lapatinib = compound: N#CC[C@H](C1CCCC1)n1cc(-c2ncnc3[nH]ccc23)cn1 [Ruxolitinib] + CS(=O)(=O)CCNCc1ccc(-c2ccc3ncnc(Nc4ccc(OCc5cccc(F)c5)c(Cl)c4)c3c2)o1 [Lapatinib] (partner 2 µM)
In short: (§1)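 Relative viability is defined as nuclei in treated wells over nuclei in vehicle wells. Duplicate plates were run and medians reported. Lung cancer cell lines in 1536-well plates were dosed by pin tool one day after seeding, with one drug or with a fixed anchor-drug dose plus five library-drug doses (not always all listed) in √10 steps, and nuclei were counted after 5 days.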

Ruxolitinib + Foretinib = compound: N#CC[C@H](C1CCCC1)n1cc(-c2ncnc3[nH]ccc23)cn1 [Ruxolitinib] + COc1cc2c(Oc3ccc(NC(=O)C4(C(=O)Nc5ccc(F)cc5)CC4)cc3F)ccnc2cc1OCCCN1CCOCC1 [Foretinib] (partner 0.25 µM)
In short: as §1

Vismodegib + Bortezomib = compound: CS(=O)(=O)c1ccc(C(=O)Nc2ccc(Cl)c(-c3ccccn3)c2)c(Cl)c1 [Vismodegib] + CC(C)C[C@H](NC(=O)[C@H](Cc1ccccc1)NC(=O)c1cnccn1)B(O)O [Bortezomib] (partner 0.002 µM)
In short: as §1

Ruxolitinib + Crizotinib = compound: N#CC[C@H](C1CCCC1)n1cc(-c2ncnc3[nH]ccc23)cn1 [Ruxolitinib] + C[C@@H](Oc1cc(-c2cnn(C3CCNCC3)c2)cnc1N)c1c(Cl)ccc(F)c1Cl [Crizotinib] (partner 1 µM)
In short: as §1

Cell Line | relative viability (Ruxolitinib + Lapatinib; first compound 0.08 µM) | relative viability (Ruxolitinib + Lapatinib; first compound 0.253 µM) | relative viability (Ruxolitinib + Lapatinib; first compound 0.8 µM) | relative viability (Ruxolitinib + Lapatinib; first compound 2.53 µM) | relative viability (Ruxolitinib + Lapatinib; first compound 8 µM) | relative viability (Ruxolitinib + Foretinib; first compound 0.08 µM) | relative viability (Ruxolitinib + Foretinib; first compound 0.253 µM) | relative viability (Ruxolitinib + Foretinib; first compound 0.8 µM) | relative viability (Ruxolitinib + Foretinib; first compound 2.53 µM) | relative viability (Ruxolitinib + Foretinib; first compound 8 µM) | relative viability (Vismodegib + Bortezomib; first compound 0.08 µM) | relative viability (Vismodegib + Bortezomib; first compound 0.253 µM) | relative viability (Vismodegib + Bortezomib; first compound 0.8 µM) | relative viability (Vismodegib + Bortezomib; first compound 2.53 µM) | relative viability (Vismodegib + Bortezomib; first compound 8 µM) | relative viability (Ruxolitinib + Crizotinib; first compound 0.08 µM) | relative viability (Ruxolitinib + Crizotinib; first compound 0.253 µM) | relative viability (Ruxolitinib + Crizotinib; first compound 0.8 µM) | relative viability (Ruxolitinib + Crizotinib; first compound 2.53 µM) | relative viability (Ruxolitinib + Crizotinib; first compound 8 µM)
NCI-H1703 | 0.999 | 1.01 | 1.12 | 0.738 | 0.64 | 0.298 | 0.338 | 0.376 | 0.329 | 0.287 | 0.368 | 0.257 | 0.372 | 0.342 | 0.401 | 0.643 | 0.611 | 0.832 | 0.497 | 0.241
EPLC-272H | 0.164 | 1.08 | 0.953 | 1 | 0.671 | 0.645 | 0.635 | 0.79 | 0.573 | 0.472 | 0.988 | 0.783 | 0.864 | 1.14 | 0.723 | 0.925 | 0.945 | 1.2 | 0.729 | 0.863
HCC-78 | 0.37 | 0.294 | 0.441 | 0.553 | 0.199 | 0.501 | 0.568 | 0.599 | 0.554 | 0.515 | – | 0.498 | 0.488 | 0.549 | 0.4 | 0.305 | 0.273 | 0.308 | 0.322 | 0.324
LXF-289 | 0.849 | 0.891 | 0.861 | 0.825 | 0.786 | 0.902 | 0.957 | 0.97 | 0.91 | 0.871 | 0.985 | 0.977 | 1.02 | 0.965 | 0.944 | 0.777 | 0.805 | 0.781 | 0.757 | 0.737
NCI-H460 | 0.95 | 1.06 | 1.21 | 0.759 | 1.08 | 1.02 | 0.999 | 1.1 | 0.917 | 0.843 | 1.13 | 0.929 | 1.19 | 0.998 | 1.2 | 0.985 | 1.02 | 1.01 | 0.803 | 0.447
NCI-H2023 | 0.921 | 0.693 | 1.75 | 0.807 | 0.728 | 0.682 | 0.897 | 0.947 | 0.978 | 1.32 | 0.906 | 0.889 | 0.915 | 1.02 | 0.943 | 0.533 | 0.574 | 0.746 | 0.704 | 0.719
SK-LU-1 | 0.973 | 0.991 | 0.896 | 0.819 | 0.693 | 0.813 | 0.806 | 0.876 | 0.75 | 0.676 | 1.17 | – | 0.979 | 1.1 | 1.16 | 1.01 | 1 | 1.08 | 0.847 | 0.584
NCI-H1734 | 1.09 | 1 | 1.21 | 0.87 | 0.936 | 0.862 | 0.713 | 0.894 | 0.759 | 0.815 | 0.89 | 0.835 | 0.949 | 0.858 | 1.03 | 0.66 | 0.721 | 0.795 | 0.633 | 0.559
PC-3 [JPC-3] | 0.452 | 0.431 | 0.46 | 0.488 | 0.505 | 0.859 | 1.01 | 0.975 | 0.957 | 0.871 | 0.827 | 0.929 | 0.786 | 0.766 | 0.93 | 0.886 | 1 | 0.998 | 1.01 | 0.874
HCC-827 | – | 0.196 | 0.172 | 0.212 | 0.225 | – | 0.764 | 0.755 | 0.918 | 0.811 | 1.05 | 1.06 | 0.982 | 1.14 | 0.985 | – | 0.878 | 0.734 | 0.856 | 0.826
NCI-H2405 | – | 1 | 1.23 | 0.879 | 0.643 | – | 1.06 | 1.17 | 1.08 | 0.875 | 0.833 | 0.977 | 0.978 | 0.92 | 0.995 | 0.853 | 0.87 | 0.984 | 0.761 | 0.596
HOP-62 | – | 1.07 | 1.16 | 0.91 | 0.914 | 1.16 | 1.07 | 1.16 | 1.11 | 1.09 | 0.863 | 0.657 | 0.882 | 0.743 | 0.637 | – | 1.05 | 0.707 | 1.01 | 0.749
LCLC-97TM1 | 0.877 | 0.833 | 0.852 | 0.83 | 1.21 | 0.848 | 0.753 | 0.826 | 0.834 | 0.889 | 0.741 | 0.652 | 0.804 | 0.694 | 0.671 | 0.361 | 0.393 | 0.487 | 0.472 | 0.275
NCI-H3122 | 0.928 | 1.04 | 0.98 | 0.848 | 0.934 | 0.942 | 0.873 | 1.01 | 0.881 | 0.948 | 1.03 | 1.05 | 1.01 | 0.986 | 0.935 | 0.332 | 0.269 | 0.282 | 0.312 | 0.282
PC-14 | – | 0.243 | 0.347 | 0.316 | 0.313 | – | 0.947 | 0.971 | 0.875 | 0.828 | 0.802 | 0.779 | 0.994 | 0.761 | 0.755 | – | 0.949 | 0.883 | 0.819 | 0.655
NCI-H1650 | – | 0.826 | 1.05 | 0.761 | 0.89 | – | 1.25 | 1.29 | 1.27 | 1.13 | 0.196 | 0.314 | 0.198 | 0.205 | 0.191 | – | 0.9 | 1.11 | 0.83 | 0.848
HCC-366 | 1.11 | 0.982 | 1.1 | 0.937 | 0.747 | 0.934 | 0.855 | 1.07 | 0.915 | 0.744 | 1.06 | 1.03 | 1.06 | 0.934 | 1.06 | 0.513 | 0.551 | 0.549 | 0.449 | 0.257
